Reference: patent publication US4531001A, “2-β-D-ribofuranosylselenazole-4-carboxamide compounds” (priority 1983, dated 1985)
Converted amounts (≈) assume the structure as drawn. “And” between values parts separate entries of the source, which are not always exact repeats. Equal entries are not always repeated. Where two headings read alike, the source gives them in different places.

Assays:
[1] = tested on: P388; experiment: Growth inhibition in suspension cell culture, P388; type: cell-based; settings: Mus musculus, 72 hours, cell count 50 percent of untreated control, read-out: ID50 (the source's name)
Experimental: (§1) In further tests, growth-inhibitory effects of COMPOUND 1 and COMPOUND 2 were measured against 3 mouse tumor lines in suspension cell culture. Cell cultures were initiated at a density of 50,000 cells/ml in medium RPMI 1630 supplemented with 10 percent fetal calf serum. Composition of this culture medium and details of the culture procedure followed the published method (G. E. Moore, A. A. Sandberg and K. Ulrich, Suspension Cell Culture and in vivo and in-vitro chromosome constitution of mouse leukemia L1210, Journal of the National Cancer Institute 36, 405-415, 1966). Cultures were maintained at 37 degrees in stationary suspension culture under a 95 percent air+5 percent CO2 atmosphere. Test compounds were added to treated cultures at the time of initiation, and were present continually. After 72 hours, 40-fold dilutions of drug-treated and untreated control cultures were prepared in 0.9 percent NACl solution, and cells were counted on an electronic particle counter. The growth-inhibitory effects are expressed as ID50 values, namely, test compound inhibitory dosages or concentrations required to decrease cell count in treated cultures to 50 percent of the cell count of untreated control cultures.

[2] = tested on: Hela cells; experiment: Toxicity to Hela cells; settings: 1000 ug/ml (highest concentration tested)
[3] = tested on: VSV; experiment: microbe, parasite or virus in culture; type: cell-based; settings: for Virus Rating: >1.0 definite, 0.5-0.9 moderate, <0.5 slight or no activity; for EC50: Vesicular stomatitis virus, read-out: ED50
[4] = tested on: 3 mouse tumor lines; experiment: Growth inhibition in suspension cell culture, representative tumor lines; type: cell-based; settings: representative tumor lines in cell culture
Experimental: as §1

[5] = tested on: B16 Melanoma; experiment: Growth inhibition in suspension cell culture, B16 Melanoma; type: cell-based; settings: Mus musculus, 72 hours, cell count 50 percent of untreated control, read-out: ID50 (the source's name)
Experimental: as §1

[6] = tested on: L-1210; experiment: Growth inhibition in suspension cell culture, L-1210; type: cell-based; settings: Mus musculus, L1210, 72 hours, cell count 50 percent of untreated control, read-out: ID50 (the source's name)
Experimental: as §1

[7] = tested on: Lewis lung carcinoma; experiment: Lewis lung in vivo mouse model, low doses, Example 13 (Table III); parameters: species or system B6 D2 F1 female mice; settings: for Treated Group Survival Time: control 20.2
Experimental: (§2) As illustrative examples of the antitumor use of COMPOUNDS 1 and 2, Examples 12 through 14, below, are given. […] The tests utilized in these illustrative examples were conducted by the Developmental Therapeutics Program, Division of Cancer Treatment, National Cancer Institute. The tests were supervised by this agency utilizing their standard protocols and procedures. All tests conformed to these protocols and all tests were evaluated under the criteria defined by these protocols. The following representative examples illustrate confirmed activity of the illustrative compounds of the invention against screening tumor systems of the National Cancer Institute.
(§3) For purposes of the following examples, the abbreviation IP stands for intraperitoneal and IV stands for intravenous. The mean and median survival times are calculated in instruction 14 (revised 6/78) of the Screening Data Summary, Developmental Therapeutics Program, Division of Cancer Treatment, National Cancer Institute. The contents of this Screening Data Summary including appropriate revisions are herein incorporated by reference.
(§4) In the illustrated examples below, the vehicle used as carrier for the drug was injected (minus any drug therein) into the control animals at the same level of use of the vehicle in the drug treated animals in order to eliminate any vehicle effect of the tests.
COMPOUND 1 was further tested in a Lewis lung in vivo mouse model using B6 D2 F1 female mice challenged with Lewis lung carcinoma.

[8] = tested on: Lewis lung carcinoma; experiment: Antitumor activity against Lewis lung carcinoma, Example 13 (Table II); type: in vivo, B6 D2 F1 female mice; settings: for Treated Group Survival Time: median, control 16.9
Experimental: as §2, §3, §4
In this example COMPOUND 1 was tested in B6 D2 F1 female mice challenged with Lewis lung carcinoma. The median survival time of the test animals was compared to that of appropriate control animals.

[9] = Solubility in aqueous media
[10] = 12 mg/kg (12.50 mg/kg in source)

SMILES: NC(=O)c1c[se]c([C@@H]2O[C@H](CO)[C@@H](O)[C@H]2O)n1 [COMPOUND 1, 2-β-D-ribofuranosylselenazole-4-carboxamide]
- IC50 [1]: 270 nM
- toxicity to cells [2]: non-toxic
- antiviral activity in words ([3]; HeLa cells, Rhabdoviridae (VSV)): Excellent antiviral activity
- Virus Rating ([3]; HeLa): 2.1
- Virus Rating ([3]; Vero): 0.4
- EC50 ([3]; HeLa): 9 µg/mL (≈ 29.3 µM)
- EC50 ([3]; Vero): 1000 µg/mL (≈ 3260 µM)
- growth inhibition in words [4]: inhibit growth in cell culture for representative tumor lines at extremely low dosage
- IC50 [5]: 3500 nM
- IC50 [6]: 400 nM
- Cures ([7]; 0.75 mg/kg): 0/10
- Percent Treated Animals/Control Animals (T/C) ([7]; 0.75 mg/kg): 107%
- Treated Group Survival Time ([7]; 0.75 mg/kg): 21.7
- Cures ([7]; 1.50 mg/kg): 0/10
- Percent Treated Animals/Control Animals (T/C) ([7]; 1.50 mg/kg): 110%
- Treated Group Survival Time ([7]; 1.50 mg/kg): 22.3
- Cures ([7]; 3.00 mg/kg): 0/10
- Percent Treated Animals/Control Animals (T/C) ([7]; 3.00 mg/kg): 153%
- Treated Group Survival Time ([7]; 3.00 mg/kg): 31.0
- DN2 level activity ([7]; 3 mg/kg, percent T/C greater than 150): achieved DN2 level activity
- Cures ([7]; 6.00 mg/kg): 5 out of 10 and 5/10
- Percent Treated Animals/Control Animals (T/C) ([7]; 6.00 mg/kg): 297%
- Treated Group Survival Time ([7]; 6.00 mg/kg): 60.0
- Cures ([7]; 12.00 mg/kg): 9/10
- Percent Treated Animals/Control Animals (T/C) ([7]; 12.00 mg/kg): 297%
- Treated Group Survival Time ([7]; 12.00 mg/kg): 60.0
- Cures ([7]; 24.00 mg/kg): 9 out of 10 and 9/10
- Percent Treated Animals/Control Animals (T/C) ([7]; 24.00 mg/kg): 297%
- Treated Group Survival Time ([7]; 24.00 mg/kg): 60.0
- antitumor activity in words ([7]; mouse, in vivo): effective antitumor agent
- Cures [8, 10]: 8 out of 10 and 8/10
- Percent Treated Animals/Control Animals (T/C) [8, 10]: 355%
- Treated Group Survival Time [8, 10]: 60.0
- Cures ([8]; 25 mg/kg): 7 out of 10 and 7/10
- Percent Treated Animals/Control Animals (T/C) ([8]; 25 mg/kg): 355%
- Treated Group Survival Time ([8]; 25 mg/kg): 60.0
- Cures ([8]; 50 mg/kg): 6 out of 10 and 6/10
- Percent Treated Animals/Control Animals (T/C) ([8]; 50 mg/kg): 355%
- Treated Group Survival Time ([8]; 50 mg/kg): 60.0
- Cures ([8]; 100 mg/kg): 3/10
- Percent Treated Animals/Control Animals (T/C) ([8]; 100 mg/kg): 120%
- Treated Group Survival Time ([8]; 100 mg/kg): 20.3
- Cures ([8]; 200 mg/kg): 0/10
- Treated Group Survival Time ([8]; 200 mg/kg): 10.7
- survival of test animals in words ([8]; 50, 25 and 12.50 mg/kg): all of the test animals survived
- antitumor activity in words ([8]; median survival time versus control): effective antitumor agent
- solubility in aqueous media [9]: soluble in aqueous media
